Experimental data reported in US9492471B2, “Methods of treating a disease or disorder associated with Bruton'S Tyrosine Kinase” (Celgene Avilomics Research, Inc., priority 2013, dated 2016).
Where two headings read alike, the source gives them in different places.

Experiments:
Assay in all cases: HotSpot kinase profiling
Format in all cases: biochemical
LCK2/ICK = molecular target: T1, LCK2/ICK (Homo sapiens, UniProt Q9UPZ9)
T1 construct: purchased Reaction Biology Corp
T1 sequence (Q9UPZ9 1-632): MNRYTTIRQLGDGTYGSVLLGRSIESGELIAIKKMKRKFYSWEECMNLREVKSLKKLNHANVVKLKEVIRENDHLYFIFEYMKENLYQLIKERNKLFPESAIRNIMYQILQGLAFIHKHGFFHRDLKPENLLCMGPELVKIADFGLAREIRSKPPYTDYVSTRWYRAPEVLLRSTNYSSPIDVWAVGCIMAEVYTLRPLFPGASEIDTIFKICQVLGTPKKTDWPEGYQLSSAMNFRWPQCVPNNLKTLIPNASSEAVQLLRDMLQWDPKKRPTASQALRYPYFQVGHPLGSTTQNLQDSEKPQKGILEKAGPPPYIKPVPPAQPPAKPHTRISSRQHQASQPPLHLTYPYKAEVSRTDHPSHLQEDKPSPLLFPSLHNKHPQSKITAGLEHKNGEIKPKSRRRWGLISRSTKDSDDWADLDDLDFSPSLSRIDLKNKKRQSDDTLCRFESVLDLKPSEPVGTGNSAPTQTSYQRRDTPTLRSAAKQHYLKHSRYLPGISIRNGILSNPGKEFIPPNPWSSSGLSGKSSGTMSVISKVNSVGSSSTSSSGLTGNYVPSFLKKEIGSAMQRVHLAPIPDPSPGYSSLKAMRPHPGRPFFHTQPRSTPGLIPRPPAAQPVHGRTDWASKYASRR
How it was run: (§1)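 Percent inhibition, averaged when run more than once and referenced to a DMSO negative control, came from a radioactive filter-binding readout on P81 paper. Reactions of kinase with freshly made substrate and cofactors ran for 2 h at room temperature.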

SRMS = molecular target: T2, SRMS (Homo sapiens, UniProt Q9H3Y6)
T2 construct: purchased Reaction Biology Corp
How it was run: as §1

PYK2 = molecular target: T3, PYK2 (Homo sapiens, UniProt Q14289)
T3 construct: purchased Reaction Biology Corp
How it was run: as §1

ARAF = molecular target: T4, ARAF (Homo sapiens, UniProt P10398)
T4 construct: purchased Reaction Biology Corp
T4 sequence (P10398 1-606): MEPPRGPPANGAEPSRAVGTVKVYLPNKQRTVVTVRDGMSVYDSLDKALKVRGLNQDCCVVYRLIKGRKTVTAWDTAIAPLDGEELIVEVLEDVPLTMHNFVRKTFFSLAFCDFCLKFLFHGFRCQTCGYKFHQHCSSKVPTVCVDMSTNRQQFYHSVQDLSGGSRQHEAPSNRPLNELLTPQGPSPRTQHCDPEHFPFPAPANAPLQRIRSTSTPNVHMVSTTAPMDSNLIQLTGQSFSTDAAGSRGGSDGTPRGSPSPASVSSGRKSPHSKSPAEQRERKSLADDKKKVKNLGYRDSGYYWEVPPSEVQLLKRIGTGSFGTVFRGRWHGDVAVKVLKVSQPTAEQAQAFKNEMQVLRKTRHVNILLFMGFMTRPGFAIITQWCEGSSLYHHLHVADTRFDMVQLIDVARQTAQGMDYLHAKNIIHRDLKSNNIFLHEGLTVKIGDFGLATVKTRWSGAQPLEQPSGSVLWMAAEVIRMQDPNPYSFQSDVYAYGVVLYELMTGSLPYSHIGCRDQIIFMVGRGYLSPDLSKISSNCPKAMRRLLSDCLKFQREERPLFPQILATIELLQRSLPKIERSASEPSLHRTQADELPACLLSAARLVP
How it was run: as §1

WNK1 = molecular target: T5, WNK1 (Homo sapiens, UniProt Q9H4A3)
T5 construct: purchased Reaction Biology Corp
How it was run: as §1

[1] = read-out: % Enzyme Activity (relative to DMSO controls) Run 1
[2] = read-out: % Enzyme Activity (relative to DMSO controls) Run 2

T2 sequence (Q9H3Y6 whole entry): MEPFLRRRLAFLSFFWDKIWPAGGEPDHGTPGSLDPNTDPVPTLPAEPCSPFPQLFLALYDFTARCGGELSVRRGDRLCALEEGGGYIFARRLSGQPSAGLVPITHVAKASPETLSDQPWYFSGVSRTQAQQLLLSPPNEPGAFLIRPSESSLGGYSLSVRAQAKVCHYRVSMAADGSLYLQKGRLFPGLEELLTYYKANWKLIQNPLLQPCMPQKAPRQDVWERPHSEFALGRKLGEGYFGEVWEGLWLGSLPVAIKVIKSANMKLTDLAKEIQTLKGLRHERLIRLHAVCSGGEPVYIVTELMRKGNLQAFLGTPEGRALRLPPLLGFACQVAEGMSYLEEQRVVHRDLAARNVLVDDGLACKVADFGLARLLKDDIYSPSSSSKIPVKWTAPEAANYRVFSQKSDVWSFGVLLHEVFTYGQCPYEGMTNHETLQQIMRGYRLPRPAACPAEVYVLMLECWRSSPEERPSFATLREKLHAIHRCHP
T5 sequence (Q9H4A3 whole entry): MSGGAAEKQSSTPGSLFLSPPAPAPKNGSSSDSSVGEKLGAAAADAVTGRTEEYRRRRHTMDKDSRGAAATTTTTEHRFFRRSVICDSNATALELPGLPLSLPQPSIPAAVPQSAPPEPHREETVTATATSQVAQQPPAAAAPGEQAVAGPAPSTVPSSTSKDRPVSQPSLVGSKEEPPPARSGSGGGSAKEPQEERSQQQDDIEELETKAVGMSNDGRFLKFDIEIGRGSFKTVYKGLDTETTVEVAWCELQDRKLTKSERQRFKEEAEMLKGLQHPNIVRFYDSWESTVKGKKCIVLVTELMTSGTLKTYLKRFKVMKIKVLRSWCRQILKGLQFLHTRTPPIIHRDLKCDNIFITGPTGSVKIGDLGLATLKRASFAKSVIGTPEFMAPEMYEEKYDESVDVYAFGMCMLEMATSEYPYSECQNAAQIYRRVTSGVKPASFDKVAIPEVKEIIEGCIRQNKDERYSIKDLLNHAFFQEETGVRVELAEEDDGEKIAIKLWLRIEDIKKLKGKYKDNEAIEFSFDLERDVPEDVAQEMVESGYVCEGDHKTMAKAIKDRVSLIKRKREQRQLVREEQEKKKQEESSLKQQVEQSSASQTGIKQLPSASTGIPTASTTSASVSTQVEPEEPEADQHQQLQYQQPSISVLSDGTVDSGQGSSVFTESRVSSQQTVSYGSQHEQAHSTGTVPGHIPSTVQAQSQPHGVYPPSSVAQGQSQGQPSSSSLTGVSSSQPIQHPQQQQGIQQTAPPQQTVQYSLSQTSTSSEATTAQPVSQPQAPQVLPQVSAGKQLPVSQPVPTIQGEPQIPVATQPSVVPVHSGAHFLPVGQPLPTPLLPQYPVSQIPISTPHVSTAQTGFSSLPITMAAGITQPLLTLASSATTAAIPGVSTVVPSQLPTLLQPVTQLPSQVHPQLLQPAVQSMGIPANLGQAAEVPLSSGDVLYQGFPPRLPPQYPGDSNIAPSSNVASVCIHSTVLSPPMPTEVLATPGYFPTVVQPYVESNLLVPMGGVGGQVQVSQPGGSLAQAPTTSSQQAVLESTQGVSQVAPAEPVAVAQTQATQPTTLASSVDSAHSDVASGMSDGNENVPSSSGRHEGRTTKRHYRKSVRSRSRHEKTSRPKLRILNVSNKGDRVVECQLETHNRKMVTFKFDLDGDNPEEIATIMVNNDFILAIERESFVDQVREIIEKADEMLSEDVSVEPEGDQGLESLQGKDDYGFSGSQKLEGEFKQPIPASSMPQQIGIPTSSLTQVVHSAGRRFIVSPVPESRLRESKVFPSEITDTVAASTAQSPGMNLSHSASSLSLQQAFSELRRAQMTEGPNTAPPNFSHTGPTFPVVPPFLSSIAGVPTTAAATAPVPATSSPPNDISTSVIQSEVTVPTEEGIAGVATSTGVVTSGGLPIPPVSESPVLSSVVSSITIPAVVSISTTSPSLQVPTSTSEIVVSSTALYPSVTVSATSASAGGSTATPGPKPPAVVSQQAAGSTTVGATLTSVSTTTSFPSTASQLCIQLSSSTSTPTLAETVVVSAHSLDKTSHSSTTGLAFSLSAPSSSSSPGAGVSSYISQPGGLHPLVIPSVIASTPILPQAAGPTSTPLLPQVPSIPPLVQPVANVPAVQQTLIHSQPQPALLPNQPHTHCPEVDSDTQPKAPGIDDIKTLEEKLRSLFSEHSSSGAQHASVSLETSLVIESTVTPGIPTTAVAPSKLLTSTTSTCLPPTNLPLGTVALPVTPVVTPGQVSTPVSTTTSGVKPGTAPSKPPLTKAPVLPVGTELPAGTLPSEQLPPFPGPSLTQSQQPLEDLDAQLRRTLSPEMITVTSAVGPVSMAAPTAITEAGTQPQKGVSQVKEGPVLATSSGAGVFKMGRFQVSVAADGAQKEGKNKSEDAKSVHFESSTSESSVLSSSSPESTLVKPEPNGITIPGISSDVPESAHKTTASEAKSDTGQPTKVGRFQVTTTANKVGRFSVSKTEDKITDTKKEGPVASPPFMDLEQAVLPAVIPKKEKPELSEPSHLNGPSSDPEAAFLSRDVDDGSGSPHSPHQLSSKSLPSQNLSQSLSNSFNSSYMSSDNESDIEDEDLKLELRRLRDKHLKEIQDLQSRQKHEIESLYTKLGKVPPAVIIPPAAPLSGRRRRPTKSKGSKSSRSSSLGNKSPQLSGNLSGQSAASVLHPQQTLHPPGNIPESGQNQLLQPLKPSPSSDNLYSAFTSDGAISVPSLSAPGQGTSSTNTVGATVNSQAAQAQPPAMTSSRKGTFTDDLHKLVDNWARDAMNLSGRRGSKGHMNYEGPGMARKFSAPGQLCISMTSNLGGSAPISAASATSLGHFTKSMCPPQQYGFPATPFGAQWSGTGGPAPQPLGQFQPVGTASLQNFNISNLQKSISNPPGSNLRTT
T3 sequence (Q14289 whole entry): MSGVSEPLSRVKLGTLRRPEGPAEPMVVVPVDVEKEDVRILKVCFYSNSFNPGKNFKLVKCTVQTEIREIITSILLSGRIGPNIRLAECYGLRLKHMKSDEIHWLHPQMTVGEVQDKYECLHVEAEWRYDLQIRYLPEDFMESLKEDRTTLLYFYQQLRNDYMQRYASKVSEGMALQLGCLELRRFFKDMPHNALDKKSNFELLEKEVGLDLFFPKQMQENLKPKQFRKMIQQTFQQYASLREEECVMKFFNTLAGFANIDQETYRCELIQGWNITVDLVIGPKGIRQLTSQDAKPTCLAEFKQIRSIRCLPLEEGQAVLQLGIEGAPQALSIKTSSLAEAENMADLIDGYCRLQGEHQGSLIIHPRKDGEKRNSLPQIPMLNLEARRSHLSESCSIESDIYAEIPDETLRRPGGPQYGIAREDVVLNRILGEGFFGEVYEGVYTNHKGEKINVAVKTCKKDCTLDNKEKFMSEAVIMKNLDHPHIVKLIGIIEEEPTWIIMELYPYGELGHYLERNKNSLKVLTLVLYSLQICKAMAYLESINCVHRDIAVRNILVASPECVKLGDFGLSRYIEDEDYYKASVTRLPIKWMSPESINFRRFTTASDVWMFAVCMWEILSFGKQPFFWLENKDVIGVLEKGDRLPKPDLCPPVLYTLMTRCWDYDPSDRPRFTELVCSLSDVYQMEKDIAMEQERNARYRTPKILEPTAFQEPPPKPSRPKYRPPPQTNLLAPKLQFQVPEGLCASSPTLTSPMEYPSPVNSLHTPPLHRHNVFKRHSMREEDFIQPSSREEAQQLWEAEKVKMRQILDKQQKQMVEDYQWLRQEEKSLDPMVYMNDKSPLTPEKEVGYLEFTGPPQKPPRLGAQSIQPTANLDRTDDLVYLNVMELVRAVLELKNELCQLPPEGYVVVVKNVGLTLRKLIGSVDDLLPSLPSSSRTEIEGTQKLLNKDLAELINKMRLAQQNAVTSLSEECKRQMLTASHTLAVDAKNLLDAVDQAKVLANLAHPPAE

`C=CC(=O)Nc1cccc(Nc2nc(Nc3ccc(OCCOC)c(F)c3)ncc2F)c1` [Compound 2] was tested, and the inhibition at 3 µM (LCK2/ICK) was 1.98%, the remaining activity at 3 µM (LCK2/ICK; [1]) was 101% and the remaining activity at 3 µM (LCK2/ICK; [2]) was 95.1%. It also gave an inhibition at 3 µM (SRMS) of -23.1%, a remaining activity at 3 µM (SRMS; [1]) of 124% and a remaining activity at 3 µM (SRMS; [2]) of 123%. The inhibition at 3 µM (PYK2) was 29.6%, the remaining activity at 3 µM (PYK2; [1]) was 70.6% and the remaining activity at 3 µM (PYK2; [2]) was 70.1%. It also gave an inhibition at 3 µM (ARAF) of -1.47%, a remaining activity at 3 µM (ARAF; [1]) of 103% and a remaining activity at 3 µM (ARAF; [2]) of 100%. For the same compound, the inhibition at 3 µM (WNK1) was -12.1%, the remaining activity at 3 µM (WNK1; [1]) was 112% and the remaining activity at 3 µM (WNK1; [2]) was 112%.
